Laboratory results published in paper PMC5218480 (PLoS ONE, 2017).

System: MV-4-11 cells
Test: Gene expression microarray analysis (Affymetrix PrimeView) and GSEA
Type: cell-based, human
Parameters: RFU PODN (11730768_x_at) / Fold change /veh PODN (11730768_x_at) / RFU LINC00158 (11744669_a_at) / Fold change /veh LINC00158 (11744669_a_at) / RFU DUSP10 (11751237_a_at) / Fold change /veh DUSP10 (11751237_a_at) / RFU ID3 (11757404_x_at) / Fold change /veh ID3 (11757404_x_at) / RFU PLEKHG5 (11737974_s_at) / Fold change /veh PLEKHG5 (11737974_s_at) / RFU LRRC4B (11730491_at) / Fold change /veh LRRC4B (11730491_at) / RFU GIMAP4 (11747438_a_at) / Fold change /veh GIMAP4 (11747438_a_at) / RFU KRT8 (11758183_x_at) / Fold change /veh KRT8 (11758183_x_at) / RFU CNN1 (11734310_a_at) / Fold change /veh CNN1 (11734310_a_at) / RFU VPS37D (11726825_at) / Fold change /veh VPS37D (11726825_at) / RFU C10orf10 (11716522_x_at) / Fold change /veh C10orf10 (11716522_x_at) / RFU KIR2DL2 /// KIR2DL4 /// KIR2DL5A /// KIR2DL5B /// KIR2DS1 /// KIR2DS2 /// KIR2DS3 /// KIR2DS4 /// KIR3DL3 /// KIR3DL3 /// KIR3DS1 (11738374_at) / Fold change /veh KIR2DL2 /// KIR2DL4 /// KIR2DL5A /// KIR2DL5B /// KIR2DS1 /// KIR2DS2 /// KIR2DS3 /// KIR2DS4 /// KIR3DL3 /// KIR3DL3 /// KIR3DS1 (11738374_at) / RFU C1QL1 (11718748_at) / Fold change /veh C1QL1 (11718748_at) / RFU TMPRSS4 (11747572_a_at) / Fold change /veh TMPRSS4 (11747572_a_at) / RFU HAMP (11756126_x_at) / Fold change /veh HAMP (11756126_x_at) / RFU RNFT2 (11725882_a_at) / Fold change /veh RNFT2 (11725882_a_at) / RFU NR4A2 (11747474_a_at) / Fold change /veh NR4A2 (11747474_a_at) / RFU ABCC12 (11746883_a_at) / Fold change /veh ABCC12 (11746883_a_at) / RFU TMEM136 (11760407_x_at) / Fold change /veh TMEM136 (11760407_x_at) / RFU CLDN22 /// WWC2 (11732394_at) / Fold change /veh CLDN22 /// WWC2 (11732394_at) / RFU HLA-DPB1 (11760878_x_at) / Fold change /veh HLA-DPB1 (11760878_x_at) / RFU SPINT1 (11716480_a_at) / Fold change /veh SPINT1 (11716480_a_at) / RFU GAP43 (11754022_s_at) / Fold change /veh GAP43 (11754022_s_at) / RFU A4GNT (11735810_at) / Fold change /veh A4GNT (11735810_at) / RFU PRB3 (11715151_x_at) / Fold change /veh PRB3 (11715151_x_at) / RFU TUBB4B (11761932_at) / Fold change /veh TUBB4B (11761932_at) / RFU CAPN14 (11732068_a_at) / Fold change /veh CAPN14 (11732068_a_at) / RFU TMCC2 (11721928_a_at) / Fold change /veh TMCC2 (11721928_a_at) / RFU IRGQ (11745062_a_at) / Fold change /veh IRGQ (11745062_a_at) / RFU FAM174B (11720279_a_at) / Fold change /veh FAM174B (11720279_a_at) / RFU TMPRSS4 (11748680_a_at) / Fold change /veh TMPRSS4 (11748680_a_at) / RFU FAM212B (11763350_a_at) / Fold change /veh FAM212B (11763350_a_at) / RFU PLEKHG5 (11743358_a_at) / Fold change /veh PLEKHG5 (11743358_a_at) / RFU ZSCAN30 (11745921_a_at) / Fold change /veh ZSCAN30 (11745921_a_at) / RFU CMKLR1 (11741424_a_at) / Fold change /veh CMKLR1 (11741424_a_at) / RFU LOC101060620 /// MAPK8IP1 (11723275_at) / Fold change /veh LOC101060620 /// MAPK8IP1 (11723275_at) / RFU SPTSSB (11747773_x_at) / Fold change /veh SPTSSB (11747773_x_at) / RFU PRSS12 (11739890_at) / Fold change /veh PRSS12 (11739890_at) / RFU BIN1 (11741810_x_at) / Fold change /veh BIN1 (11741810_x_at) / RFU WNT11 (11732464_a_at) / Fold change /veh WNT11 (11732464_a_at) / RFU C10orf10 (11716521_a_at) / Fold change /veh C10orf10 (11716521_a_at) / RFU C5orf56 (11738089_at) / Fold change /veh C5orf56 (11738089_at) / RFU CYB561 (11721691_x_at) / Fold change /veh CYB561 (11721691_x_at) / RFU ANKRD19P (11752326_a_at) / Fold change /veh ANKRD19P (11752326_a_at) / RFU OR2T12 /// OR2T33 /// OR2T8 (11738714_s_at) / Fold change /veh OR2T12 /// OR2T33 /// OR2T8 (11738714_s_at) / RFU VCAN (11748164_a_at) / Fold change /veh VCAN (11748164_a_at) / RFU JSRP1 (11732532_at) / Fold change /veh JSRP1 (11732532_at) / RFU KRTAP10-11 (11738290_x_at) / Fold change /veh KRTAP10-11 (11738290_x_at) / RFU MYO3A (11730013_a_at) / Fold change /veh MYO3A (11730013_a_at) / RFU EBF3 (11725865_a_at) / Fold change /veh EBF3 (11725865_a_at) / RFU CAMK2N1 (11719241_x_at) / Fold change /veh CAMK2N1 (11719241_x_at) / RFU C5orf56 (11738088_a_at) / Fold change /veh C5orf56 (11738088_a_at) / RFU OLFML3 (11715873_a_at) / Fold change /veh OLFML3 (11715873_a_at) / RFU LOC100653217 /// NTM (11731650_a_at) / Fold change /veh LOC100653217 /// NTM (11731650_a_at) / RFU MAPK11 (11762145_a_at) / Fold change /veh MAPK11 (11762145_a_at) / RFU FIZ1 (11724087_x_at) / Fold change /veh FIZ1 (11724087_x_at) / RFU OASL (11726364_x_at) / Fold change /veh OASL (11726364_x_at) / RFU SOX15 (11748057_x_at) / Fold change /veh SOX15 (11748057_x_at) / RFU CD79A (11719716_a_at) / Fold change /veh CD79A (11719716_a_at) / RFU HIST1H1D (11736915_at) / Fold change /veh HIST1H1D (11736915_at) / RFU CASKIN2 (11723855_a_at) / Fold change /veh CASKIN2 (11723855_a_at) / RFU LOC730098 (11760151_x_at) / Fold change /veh LOC730098 (11760151_x_at) / RFU OR4N2 (11742367_at) / Fold change /veh OR4N2 (11742367_at) / RFU PRRT2 (11749266_a_at) / Fold change /veh PRRT2 (11749266_a_at) / RFU SNX32 (11753110_a_at) / Fold change /veh SNX32 (11753110_a_at) / RFU CDHR5 (11726645_a_at) / Fold change /veh CDHR5 (11726645_a_at) / RFU RCAN1 (11760418_a_at) / Fold change /veh RCAN1 (11760418_a_at) / RFU FAM167A (11723789_a_at) / Fold change /veh FAM167A (11723789_a_at) / RFU FAM26E (11764081_at) / Fold change /veh FAM26E (11764081_at) / RFU ISYNA1 (11749810_s_at) / Fold change /veh ISYNA1 (11749810_s_at) / RFU ACY1 (11761880_at) / Fold change /veh ACY1 (11761880_at) / RFU 11764098_at / Fold change /veh 11764098_at / RFU SAMD14 (11745864_x_at) / Fold change /veh SAMD14 (11745864_x_at) / RFU NPB (11741838_a_at) / Fold change /veh NPB (11741838_a_at) / RFU TMPRSS6 (11731388_a_at) / Fold change /veh TMPRSS6 (11731388_a_at) / RFU KRTAP10-2 (11738614_at) / Fold change /veh KRTAP10-2 (11738614_at) / RFU ARHGAP8 /// PRR5-ARHGAP8 (11727945_x_at) / Fold change /veh ARHGAP8 /// PRR5-ARHGAP8 (11727945_x_at) / RFU KRTAP5-7 /// NADSYN1 (11734609_at) / Fold change /veh KRTAP5-7 /// NADSYN1 (11734609_at) / RFU RASL12 (11751679_a_at) / Fold change /veh RASL12 (11751679_a_at) / RFU CDKN2B (11736163_a_at) / Fold change /veh CDKN2B (11736163_a_at) / RFU PRF1 (11729649_at) / Fold change /veh PRF1 (11729649_at) / RFU, ZNF638 /// ZNF638-IT1 / Fold change vs veh, ZNF638 /// ZNF638-IT1 / RFU, PANK3 / Fold change vs veh, PANK3 / RFU, SH3YL1 / Fold change vs veh, SH3YL1 / RFU, ZEB2 / Fold change vs veh, ZEB2 / RFU, NRIP1 / Fold change vs veh, NRIP1 / RFU, PTTG1IP / Fold change vs veh, PTTG1IP / RFU, CAPN2 / Fold change vs veh, CAPN2 / RFU, MED14 / Fold change vs veh, MED14 / RFU, SNORA58 / Fold change vs veh, SNORA58 / RFU, C1orf63 / Fold change vs veh, C1orf63 / RFU, LRRFIP1 / Fold change vs veh, LRRFIP1 / RFU, NDUFAF7 / Fold change vs veh, NDUFAF7 / RFU, SLC12A2 / Fold change vs veh, SLC12A2 / RFU, IBTK / Fold change vs veh, IBTK / RFU, ESF1 / Fold change vs veh, ESF1 / Fold change vs veh, TMEM50B / RFU, TAOK1 / Fold change vs veh, TAOK1 / RFU, ACBD3 / Fold change vs veh, ACBD3 / RFU, TMA16 / Fold change vs veh, TMA16 / RFU, RWDD3 / Fold change vs veh, RWDD3 / RFU, BCAT1 / Fold change vs veh, BCAT1 / RFU, EDEM3 / Fold change vs veh, EDEM3 / RFU, TMEM33 / Fold change vs veh, TMEM33 / RFU, WDR75 / Fold change vs veh, WDR75 / RFU, AHCTF1 / Fold change vs veh, AHCTF1 / RFU, TFRC / Fold change vs veh, TFRC / RFU, ZDHHC17 / Fold change vs veh, ZDHHC17 / RFU, NOM1 / Fold change vs veh, NOM1 / RFU, ARL8B / Fold change vs veh, ARL8B / RFU, ZBTB11 / Fold change vs veh, ZBTB11 / RFU, TAMM41 / Fold change vs veh, TAMM41 / RFU, KIAA1704 /// LOC100996395 / Fold change vs veh, KIAA1704 /// LOC100996395 / RFU, ING1 / Fold change vs veh, ING1 / RFU, TRMT61B / Fold change vs veh, TRMT61B / RFU, FUBP3 / Fold change vs veh, FUBP3 / RFU, TP53 / Fold change vs veh, TP53 / RFU, TNKS2 / Fold change vs veh, TNKS2 / RFU, ZFP14 / Fold change vs veh, ZFP14 / RFU, ACTR2 / Fold change vs veh, ACTR2 / RFU, PPP3R1 / Fold change vs veh, PPP3R1 / RFU, PIK3R1 / Fold change vs veh, PIK3R1 / RFU, HNRNPA1 / Fold change vs veh, HNRNPA1 / RFU, RNF170 / Fold change vs veh, RNF170 / RFU, ZNF28 / Fold change vs veh, ZNF28 / RFU, RNGTT / Fold change vs veh, RNGTT / RFU, OGT / Fold change vs veh, OGT / RFU, BRD1 / Fold change vs veh, BRD1 / RFU, MARS / Fold change vs veh, MARS / RFU, ZNF655 / Fold change vs veh, ZNF655 / RFU, FAHD1 / Fold change vs veh, FAHD1 / RFU, BDP1 / Fold change vs veh, BDP1 / RFU, LRRCC1 / Fold change vs veh, LRRCC1 / RFU, ARID1A / Fold change vs veh, ARID1A / RFU, ZNF146 / Fold change vs veh, ZNF146 / RFU, ZNF330 / Fold change vs veh, ZNF330 / RFU, GPN3 / Fold change vs veh, GPN3 / RFU, C9orf123 / Fold change vs veh, C9orf123 / RFU, N4BP2L2 / Fold change vs veh, N4BP2L2 / RFU, ARFIP1 / Fold change vs veh, ARFIP1 / RFU, FAM179B / Fold change vs veh, FAM179B / RFU, BCL10 / Fold change vs veh, BCL10 / RFU, UHRF1BP1L / Fold change vs veh, UHRF1BP1L / RFU, BET1 / Fold change vs veh, BET1 / RFU, CNOT2 / Fold change vs veh, CNOT2 / RFU, ZNF268 / Fold change vs veh, ZNF268 / Fold change vs veh, ZNF507 / RFU, DGCR2 / Fold change vs veh, DGCR2 / RFU, WDSUB1 / Fold change vs veh, WDSUB1 / Fold change vs veh, HSP90B1 /// MIR3652 / RFU, ADSS / Fold change vs veh, ADSS / RFU, GK / Fold change vs veh, GK / RFU, ZNF148 / Fold change vs veh, ZNF148 / RFU, TAF9 / Fold change vs veh, TAF9 / RFU, SLC1A5 / Fold change vs veh, SLC1A5 / RFU, SLMO2 / Fold change vs veh, SLMO2 / RFU, ABCC4 / Fold change vs veh, ABCC4 / RFU, LOC101060439 /// RAP1B / Fold change vs veh, LOC101060439 /// RAP1B / RFU, RFX7 / Fold change vs veh, RFX7 / RFU, GTPBP10 / Fold change vs veh, GTPBP10 / RFU, CNEP1R1 / Fold change vs veh, CNEP1R1 / RFU, BIVM-ERCC5 /// ERCC5 / Fold change vs veh, BIVM-ERCC5 /// ERCC5 / RFU, ILF3 / Fold change vs veh, ILF3 / RFU 11762660_at / Fold change /veh 11762660_at / RFU VCAN (11757783_s_at) / Fold change /veh VCAN (11757783_s_at) / RFU DDX43 (11728927_at) / Fold change /veh DDX43 (11728927_at) / RFU KRT8 (11758188_x_at) / Fold change /veh KRT8 (11758188_x_at) / RFU NKD1 (11759106_at) / Fold change /veh NKD1 (11759106_at) / RFU SRD5A1 (11742802_a_at) / Fold change /veh SRD5A1 (11742802_a_at) / RFU TPSAB1 /// TPSB2 (11721975_s_at) / Fold change /veh TPSAB1 /// TPSB2 (11721975_s_at) / RFU GSTM3 (11746129_a_at) / Fold change /veh GSTM3 (11746129_a_at) / RFU IL23R (11737362_x_at) / Fold change /veh IL23R (11737362_x_at) / RFU TMEM51 (11727254_a_at) / Fold change /veh TMEM51 (11727254_a_at) / RFU PIWIL2 (11732686_x_at) / Fold change /veh PIWIL2 (11732686_x_at) / RFU ORM1 (11744905_x_at) / Fold change /veh ORM1 (11744905_x_at) / RFU CCDC152 (11743942_at) / Fold change /veh CCDC152 (11743942_at) / RFU ECM1 (11717891_a_at) / Fold change /veh ECM1 (11717891_a_at) / RFU IL23R (11748794_a_at) / Fold change /veh IL23R (11748794_a_at) / RFU TNFAIP8L3 (11732012_x_at) / Fold change /veh TNFAIP8L3 (11732012_x_at) / RFU MBOAT4 (11741988_at) / Fold change /veh MBOAT4 (11741988_at) / RFU 11764193_at / Fold change /veh 11764193_at / RFU TMEM53 (11763286_at) / Fold change /veh TMEM53 (11763286_at) / RFU MAGEB2 (11727129_at) / Fold change /veh MAGEB2 (11727129_at) / RFU TMEM200A (11744735_a_at) / Fold change /veh TMEM200A (11744735_a_at) / RFU CCDC152 (11751479_a_at) / Fold change /veh CCDC152 (11751479_a_at) / RFU FAM211A (11726209_a_at) / Fold change /veh FAM211A (11726209_a_at) / RFU RGS16 (11746705_a_at) / Fold change /veh RGS16 (11746705_a_at) / RFU VCAN (11755009_s_at) / Fold change /veh VCAN (11755009_s_at) / RFU RHOB (11743442_s_at) / Fold change /veh RHOB (11743442_s_at) / RFU RGS16 (11720943_a_at) / Fold change /veh RGS16 (11720943_a_at) / RFU RGS16 (11720944_at) / Fold change /veh RGS16 (11720944_at) / RFU, VPS4B / Fold change vs veh, VPS4B / RFU, CREB1 / Fold change vs veh, CREB1 / RFU, DNAJC13 / Fold change vs veh, DNAJC13 / RFU, GNAQ / Fold change vs veh, GNAQ / RFU, CDK5R1 / Fold change vs veh, CDK5R1 / RFU, ZRANB3 / Fold change vs veh, ZRANB3 / RFU, CUL4A / Fold change vs veh, CUL4A / RFU, CCNY / Fold change vs veh, CCNY / RFU, UFL1 / Fold change vs veh, UFL1 / RFU, COG3 / Fold change vs veh, COG3 / RFU, DIAPH2 / Fold change vs veh, DIAPH2 / RFU, SKA2 / Fold change vs veh, SKA2 / RFU, AFF3 / Fold change vs veh, AFF3 / RFU, LMF1 / Fold change vs veh, LMF1 / RFU, IPO11 / Fold change vs veh, IPO11 / RFU, DFFB / Fold change vs veh, DFFB / RFU, FOXP1 / Fold change vs veh, FOXP1 / RFU, CARD8 / Fold change vs veh, CARD8 / RFU, STRN3 / Fold change vs veh, STRN3 / RFU, ADK / Fold change vs veh, ADK / RFU, RASSF2 / Fold change vs veh, RASSF2 / RFU, WIPF1 / Fold change vs veh, WIPF1 / RFU, LARP1B / Fold change vs veh, LARP1B / RFU, RASA1 / Fold change vs veh, RASA1 / RFU, RB1 / Fold change vs veh, RB1 / RFU, PPFIA1 / Fold change vs veh, PPFIA1 / RFU, MAT2A / Fold change vs veh, MAT2A / RFU, CCT5 / Fold change vs veh, CCT5 / RFU, WDR92 / Fold change vs veh, WDR92 / RFU, CUX1 / Fold change vs veh, CUX1 / RFU, TTC7A / Fold change vs veh, TTC7A / RFU, TMEM135 / Fold change vs veh, TMEM135 / RFU, DEPTOR / Fold change vs veh, DEPTOR / RFU, CPM / Fold change vs veh, CPM / RFU, DNAJB6 / Fold change vs veh, DNAJB6 / RFU, CACNA2D3 / Fold change vs veh, CACNA2D3 / RFU, DTX4 / Fold change vs veh, DTX4 / RFU, TFCP2 / Fold change vs veh, TFCP2 / RFU, GMCL1 /// GMCL1P1 / Fold change vs veh, GMCL1 /// GMCL1P1 / RFU, AEBP2 / Fold change vs veh, AEBP2 / RFU, SNHG1 /// SNORD22 /// SNORD25 /// SNORD26 /// SNORD27 /// SNORD28 /// SNORD29 /// SNORD31 / Fold change vs veh, SNHG1 /// SNORD22 /// SNORD25 /// SNORD26 /// SNORD27 /// SNORD28 /// SNORD29 /// SNORD31 / Fold change (Aza/veh), C12orf56 (ProbeSet 11735607_a_at) / Fold change (ACY-1035/veh), C12orf56 (ProbeSet 11735607_a_at) / Fold change (Aza/veh), FGFR1OP (ProbeSet 11751329_s_at) / Fold change (ACY-1035/veh), FGFR1OP (ProbeSet 11751329_s_at) / Fold change (Aza/veh), VPS36 (ProbeSet 11739960_a_at) / Fold change (ACY-1035/veh), VPS36 (ProbeSet 11739960_a_at) / RFU SYPL1 (11715823_x_at) / Fold change /veh SYPL1 (11715823_x_at) / RFU IGFBP7 (11715501_s_at) / Fold change /veh IGFBP7 (11715501_s_at) / RFU REEP3 (11722064_at) / Fold change /veh REEP3 (11722064_at) / RFU IGLL1 (11728026_x_at) / Fold change /veh IGLL1 (11728026_x_at): dose or concentration left out as unconfirmed
Conditions: MV-4-11 cells, 48 hours

Nc1ccc(-c2cccs2)cc1NC(=O)c1ccc2c(c1)cc(C1CC1)n2CCN1CCOCC1 [ACY-1035]
RFU PRF1 (11729649_at): 18.67 RFU
